Results reported in patent US9242944B2 (UNIVERSITY OF MARYLAND, BALTIMORE, priority 2013, dated 2016).
Entries after “also recorded” stand apart in the source; their conditions may differ. Like-named read-outs stand apart in the source and are kept apart here.

Key:
c-Myc-Max heterodimers = biological target: T1, c-Myc-Max heterodimers (Homo sapiens, UniProt P01106); assay: Electrophoretic mobility shift assay (EMSA) of c-Myc-Max dimerization and DNA binding
T1 construct: c-Myc bHLH-ZIP domain (residues 353-437); His6-TEV protease substrate tag; made in house; host or cells: bacteria (pET151 vector for Myc)
T1 sequence (P01106 368-452, one chain of several): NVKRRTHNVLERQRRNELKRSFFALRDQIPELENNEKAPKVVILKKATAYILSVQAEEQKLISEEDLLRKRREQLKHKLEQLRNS
Procedure: The ability of a small-molecule to interfere with c-Myc-Max dimerization is conveniently assessed through the disruption of the c-Myc-Max/DNA ternary complex by an electrophoretic mobility shift assay (EMSA) using fluorescently-labelled DNA, and subsequently quantified by densitometry.(23) Accordingly, a 100-member library was screened for the ability to disrupt the c-Myc-Max dimer.
These were performed essentially as described previously (23). Briefly, Ni^+-agarose-purified His6-tagged c-Myc bHLH-ZIP domain (residues 353-437) was used for all binding assays as was the His6-tagged 151 residue isoform of Max, otherwise referred to as Max(S) (residues 2-151) (21). For each binding reaction, the proteins were allowed to heterodimerize at a concentration of 30 nM each in the presence of 20 nM of a 5′-HEX-tagged double-stranded 22-base pair oligonucleotide 5′-hexachlorofluoresceine-[…]-3′ (SEQ ID NO: 1) containing a consensus c-Myc binding site (CACGTG) and the indicated concentration of small molecule inhibitor. Control reactions contained the same oligonucleotide in the presence of 60 nM of the 160 residue isoform of Max referred to as Max(L) (21). All binding reactions were prepared in a buffer consisting of PBS (pH 7.3), 1 mmol/L EDTA, 0.1% NP40, 5% glycerol, 1 mmol/L DTT, and 0.4 mg/mL bovine serum albumin. Electrophoresis was performed on 8% polyacrylamide/bisacrylamide (80:1) gels in […] (23). Each reaction was run on at least three separate occasions.
EMSAs were performed essentially as described utilizing bacterially-expressed recombinant proteins purified nearly to homogeneity.(23) Experiments with Max homodimers used the His6-tagged 160 amino acid isoform of the protein, termed Max(L), which homodimerizes and binds DNA well. For studies with Myc-Max heterodimers, the His6-tagged 151 residue isoform of Max [Max(S)] was used, which binds DNA well as a heterodimer with Myc but poorly as a homodimer.(23) Recombinant Myc protein, expressed in the pET151 vector, consisted of the His6-TEV protease substrate-tagged 85 amino acid bHLH-ZIP domain. (23) Each protein was purified by Ni-agarose affinity chromatography as previously described. (23) The His6-TEV tag was removed from the Myc protein by TEV protease cleavage followed by re-purification using Ni-agarose affinity chromatography to remove the His6-TEV protease and the cleaved His6-TEV tag as previously described. Binding assays were performed with 30 nM of each protein and 30 nM of a 6-carboxy-2′,4,4′,5′,7,7′-hexachlorofluorescein (HEX)-tagged double-stranded oligonucleotide containing a consensus Myc binding site (IDT, Coralville, Iowa).(23)

Max-Max homodimers = biological target: T2, Max-Max homodimers (Homo sapiens, UniProt P61244); assay: EMSA of Max-Max homodimerization and DNA binding; conditions: for IC50: 50% inhibition of Max-Max dimerization and DNA binding in EMSAs
T2 construct: His6; made in house; host or cells: bacteria
T2 sequence (P61244 whole entry): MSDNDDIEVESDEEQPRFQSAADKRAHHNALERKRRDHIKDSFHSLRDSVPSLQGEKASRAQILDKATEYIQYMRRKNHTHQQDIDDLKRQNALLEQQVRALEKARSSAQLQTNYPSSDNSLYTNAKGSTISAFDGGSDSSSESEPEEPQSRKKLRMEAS

HL60 cells = assay: Growth inhibition (MTT assay) in HL60 cells; type: cell-based, human; conditions: for IC50: Homo sapiens, HL-60, MTT assay; for IC50 HL60: MTT assay
Procedure: (§1) These were performed using HL60 human promyelocytic leukemia cells or Daudi Burkitt lymphoma cells essentially as described previously (23). Briefly, cells were seeded into 96 well dishes (5000 cells/well and 10,000 cells/well for HL60 and Daudi cells, respectively). Growth medium consisted of RPMI medium supplemented with Penicillin/Streptomycin, glutamine and 10% fetal bovine serum. The indicated concentrations of each compound were then added and 10-point growth inhibition assays were performed 3-5 days later using the MTT assay. Each point was performed in quadruplicate.
(§2) Daudi Burkitt lymphoma and HL60 promyelocytic leukemia cells were maintained in RPMI medium supplemented with 10% fetal bovine serum.(23) For growth inhibition studies, 3×10^3 cells were seeded in 96 well plates in the presence of serial dilutions of each compound. A total of 10 dilutions, ranging from 0.1 to 50 μM were performed for each compound. Standard MTT assays (23) were used to quantify cell number 3-4 days later and compared to wells exposed to DMSO vehicle only.

Daudi cells = assay: Growth inhibition (MTT assay) in Daudi cells; type: cell-based; conditions: for IC50: Homo sapiens, Daudi
Procedure: as §1, §2

c-Myc-Max dimerization = biological target: T3, c-Myc-Max dimerization (Homo sapiens, UniProt P01106); assay: Co-immunoprecipitation (Co-IP) of c-Myc with Max in HL60 cells; type: cell-based
T3 construct: endogenous in cells; host or cells: HL60
T3 sequence (P01106 16-454 limits assumed): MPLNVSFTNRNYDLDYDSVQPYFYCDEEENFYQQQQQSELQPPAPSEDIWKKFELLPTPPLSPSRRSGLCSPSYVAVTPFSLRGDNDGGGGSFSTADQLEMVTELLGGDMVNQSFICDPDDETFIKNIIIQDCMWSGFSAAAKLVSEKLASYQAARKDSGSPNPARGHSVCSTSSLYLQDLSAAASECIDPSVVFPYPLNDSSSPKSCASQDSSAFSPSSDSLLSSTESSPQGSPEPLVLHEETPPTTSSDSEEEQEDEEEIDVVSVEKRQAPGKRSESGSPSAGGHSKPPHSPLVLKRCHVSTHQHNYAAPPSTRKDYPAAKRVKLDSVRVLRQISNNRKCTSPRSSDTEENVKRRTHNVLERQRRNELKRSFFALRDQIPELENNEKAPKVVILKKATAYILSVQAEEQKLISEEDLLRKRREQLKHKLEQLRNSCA
Procedure: Co-IP assays were performed essentially as described previously.(23) Briefly, 5×10^6 HL60 cells (>90% viable) in log-phase growth were treated in suspension for 4-6 h with the stated concentration of 3jc48-3. As a negative control, samples exposed to DMSO vehicle only were included and processed in parallel. Treated cells were collected by centrifugation, washed twice in ice-cold PBS and lysed in IP Buffer. 300 μg of cleared lysate was then precipitated with a 1:200 dilution of anti-Max antibody(23) followed by subsequent precipitation with protein G-Sepharose using conditions recommended by the supplier (Santa Cruz Biotechnology, Inc. Santa Cruz, Calif.). The precipitate was washed three times in IP buffer, boiled in running buffer and resolved by 10% SDS-PAGE. After electrotransfer of the proteins to a PVDF membrane (Millipore Corp. Billercica, Mass.), the blot was probed with a 1:1000 dilution of anti-Myc monoclonal antibody (9E10, Santa Cruz Biotechnology, Santa Cruz, Calif.). Blots were developed using a Pierce ECL Plus enhanced chemiluminescence kit according to the directions of the supplier (Thermo-Fisher, Pittsburgh, Pa.).

[1] = 50% inhibition of c-Myc-Max dimerization and DNA binding in EMSAs
[2] = Table 10, 100 μM small-molecule, EMSA, read-out: % Inhibition of c-Myc-Max Dimerization
[3] = 10-point serial dilution, quadruplicate, read-out: IC50 HL60
[4] = 10-point serial dilution, quadruplicate
[5] = 10-point serial dilution, quadruplicate, read-out: IC50 Daudi
[6] = Table 11, 100 uM, EMSA, read-out: % Inhibition of c-Myc-Max Dimerization
[7] = Table 2, 100 μM compound, Myc-Max/DNA band intensity relative to control, read-out: Inhibition at 100 μM (%)

SMILES	IC50 (c-Myc-Max heterodimers; [1])	IC50 (Max-Max homodimers)	IC50 (HL60 cells; [3])	IC50 HL60 (HL60 cells; [4])	IC50 Daudi (Daudi cells; [4])	IC50 (Daudi cells; [5])	other results
Cc1ccc(-c2cc(C(=O)O)ccc2Nc2ccc([N+](=O)[O-])c3nonc23)cc1 [Compound 3jc53-6, 4′-Methyl-6-((7-nitrobenzo[c][1,2,5]oxadiazol-4-yl)amino)-[1,1′-biphenyl]-3-carboxylic acid]	> 100 µM	> 100 µM	> 100 µM	inactive	inactive	> 100 µM	inhibition of c-Myc-Max dimerization in vitro (in words) (c-Myc-Max heterodimers; EMSA): inactive in vitro; inhibition at 100 µM (c-Myc-Max heterodimers; [2]): 16%
O=C(Oc1ccccc1)c1ccc(Nc2ccc([N+](=O)[O-])c3nonc23)cc1 [SF-4-017, Phenyl 4-((7-nitrobenzo[c][1,2,5]oxadiazol-4-yl)amino)benzoate]	–	> 50 µM	9.2 ± 0.78 µM	single-digit micromolar	single-digit micromolar	2.5 ± 0.05 µM	IC50 (c-Myc-Max heterodimers): 30 µM; disruption of c-Myc-Max dimerization in cells (co-IP) (c-Myc-Max dimerization): inhibit c-Myc-Max dimerization in cells
O=C(O)c1cc([N+](=O)[O-])ccc1Nc1ccccc1-c1ccccc1 [SF-3-103B, 2-([1,1′-biphenyl]-2-ylamino)-5-nitrobenzoic acid]	84 µM	> 100 µM	> 100 µM	inactive	inactive	> 100 µM	c-Myc-Max inhibitory potency relative to 10074-G5 (c-Myc-Max heterodimers; EMSA): nearly two-fold more potent; inhibition at 100 µM (c-Myc-Max heterodimers; [6]): ≥ 33%
O=C(Nc1ccccc1)c1ccc(Nc2ccc([N+](=O)[O-])c3nonc23)cc1 [JY-5-195, 4-((7-Nitrobenzo[c][1,2,5]oxadiazol-4-yl)amino)-N-phenylbenzamide]	57.9 µM	> 100 µM	3.1 ± 0.3 µM	single-digit micromolar	single-digit micromolar	5.1 ± 0.56 µM	–
O=C(Nc1ccccc1C(F)(F)F)c1ccc(Nc2ccc([N+](=O)[O-])c3nonc23)cc1 [JY-5-261, 4-((7-Nitrobenzo[c][1,2,5]oxadiazol-4-yl)amino)-N-(2-(trifluoromethyl)phenyl)benzamide]	71 µM	> 100 µM	5.3 ± 0.3 µM	single-digit micromolar	single-digit micromolar	3.9 ± 0.4 µM	–
O=C(OCC(F)(F)F)c1ccc(Nc2ccc([N+](=O)[O-])c3nonc23)cc1 [Compound 3jc91-7, Trifluoroethyl 4-((7-nitrobenzo[c][1,2,5]oxadiazol-4-yl)amino)benzoate]	–	–	–	–	–	–	disruption of c-Myc-Max dimerization in cells (co-IP) (c-Myc-Max dimerization): inhibit c-Myc-Max dimerization in cells
O=C(O)c1ccc(Nc2ccc([N+](=O)[O-])c3nonc23)cc1 [JY-3-094, 4-((7-Nitrobenzo[c][1,2,5]oxadiazol-4-yl)amino)benzoic acid]	33 µM	> 100 µM	> 100 µM	inactive	inactive	> 100 µM	c-Myc-Max inhibitory potency relative to 10074-G5 (c-Myc-Max heterodimers; EMSA): around five-fold as potent; inhibition of c-Myc-Max dimerization in vitro (in words) (c-Myc-Max heterodimers; EMSA): dose-dependent inhibition; selectivity for Myc-Max heterodimers over Max-Max homodimers (c-Myc-Max heterodimers; EMSA): greater than three-fold selectivity; also recorded: at least three-fold selective; Kd (c-Myc-Max heterodimers; EMSA dose-response (FIG. 4), read-out: Kd value, inhibition of Myc-Max dimerization): 33 µM; inhibition at 100 µM (c-Myc-Max heterodimers; read-out: % Inhibition of c-Myc-Max Dimerization, Table 10, 100 μM small-molecule, EMSA): 94%; inhibition at 100 µM (c-Myc-Max heterodimers; read-out: % Inhibition of c-Myc-Max Dimerization, Table 11, 100 uM, EMSA): 94%; inhibition at 100 µM (c-Myc-Max heterodimers; read-out: Inhibition at 100 μM (%), Table 1, 100 μM compound, Myc-Max/DNA band intensity relative to control): 93%; activity against Max-Max homodimers (Max-Max homodimers; EMSA, at 100 μM): no effect; also recorded: no activity
COC(=O)c1ccc(Nc2ccc([N+](=O)[O-])c3nonc23)c(-c2ccc(C(F)(F)F)cc2)c1 [Compound 4jc23-4, Methyl 6-((7-nitrobenzo[c][1,2,5]oxadiazol-4-yl)amino)-4′-(trifluoromethyl)-[1,1′-biphenyl]-3-carboxylate]	75 µM	> 100 µM	0.877 ± 0.07 µM	–	–	0.5 ± 0.025 µM	inhibition at 100 µM (c-Myc-Max heterodimers; [2]): 74%; IC50 (HL60 cells; read-out: IC50 against HL60 cells): 0.877 µM; IC50 (Daudi cells; read-out: IC50 against Daudi cells): 0.5 µM
O=C(O)CCC(=O)Nc1ccc(Nc2ccccc2-c2ccccc2)c2nonc12 [Compound 5d, 4-((7-([1,1′-Biphenyl]-2-ylamino)benzo[c][1,2,5]oxadiazol-4-yl)amino)-4-oxobutanoic acid]	–	–	–	–	–	–	inhibition at 100 µM (c-Myc-Max heterodimers; [7]): 17%
O=C(O)c1ccc(Nc2ccc([N+](=O)[O-])c3nonc23)c(-c2ccccc2O)c1 [Compound 3jc53-13]	–	–	–	–	–	–	inhibition at 100 µM (c-Myc-Max heterodimers; [2]): 0%
N#Cc1ccc(-c2cc(Nc3ccc([N+](=O)[O-])c4nonc34)ccc2C(=O)O)cc1 [Compound 3jc62-6]	–	–	–	–	–	–	inhibition at 100 µM (c-Myc-Max heterodimers; [2]): 25%
O=C(O)c1ccccc1Nc1ccc([N+](=O)[O-])c2nonc12 [Compound 3i, 2-((7-Nitrobenzo[c][1,2,5]oxadiazol-4-yl)amino)benzoic acid]	–	–	–	–	–	–	inhibition at 100 µM (c-Myc-Max heterodimers; Table 1, 100 μM compound, Myc-Max/DNA band intensity relative to control, read-out: Inhibition at 100 μM (%)): 8%
COC(=O)Nc1ccc(Nc2ccccc2-c2ccccc2)c2nonc12 [Compound 5c, Methyl (7-([1,1′-biphenyl]-2-ylamino)benzo[c][1,2,5]oxadiazol-4-yl)carbamate]	–	–	–	–	–	–	inhibition at 100 µM (c-Myc-Max heterodimers; [7]): 0%
N#Cc1ccc(Nc2ccccc2-c2ccccc2)c(Cl)c1 [SF-3-083]	–	–	–	–	–	–	inhibition at 100 µM (c-Myc-Max heterodimers; [6]): 9%
